Reference: patent publication US12371405B1, “Isoindol-sulfilimine compound and use as a sigma-2 receptor inhibitor thereof” (SHANGHAI UNIVERSITY OF MEDICINE AND HEALTH SCIENCES, priority 2024, dated 2025)

Experiments:
[1] = test system: cerebrospinal fluid β-amyloid (aβ); details: at 1 h after administration; cited from earlier work
sigma-2 receptor [2] = target: T1, sigma-2 receptor (Homo sapiens, UniProt Q5BJF2); details: cited from earlier work
[3] = cited from earlier work
sigma-1 receptor = sigma-1 receptor (Homo sapiens, UniProt Q99720); test: Sigma1 binding assay (3H-DTG radioligand, cell membrane); details: sigma-1R cell membrane, 2 hours at room temperature; for IC50: read-out: Sigma1 Binding Assay Summary IC50; for Ki: read-out: Sigma1 Binding Assay Summary Ki
Method: (§1) The pharmacodynamic test methods employed in this embodiment are those known to those skilled in the art; the sigma-2 receptor inhibitory activity assay kit employed in this embodiment is commercially available to those skilled in the art. sigmal/sigma-2 receptor affinity activity test:
(§2) In a 96-well plate, eight 4-fold dilutions of the test and reference compounds were made, and 1 μL of each compound was added to each well, and the wells were rearranged. The reference compound Haloperidol was added at a starting concentration of 1 μM, 1 μL of DMSO was added to the high signal control wells (High control), and 1 μL of Haloperidol was added to the low signal control wells (Low control) at a concentration of 200 μM (final concentration of 1 μM), and 100 μL of desired concentration of sigma-1R or sigma-2R cell membrane, diluted in 50 mM Tris-HCl (pH 7.4, Sigma, Cat: T1503-1 KG) was added to each well and 100 μL of desired concentration of 3H-DTG diluted in 50 mM Tris-HCl (pH 7.4) was added to each well, the 96-well plate was sealed, and incubated for 2 hours at room temperature on a shaker at 300 rpm. Simultaneously, GF/C filter plates (PerkinElmer, Cat: NET986250UC) were soaked with 0.3% PEI (Poly ethyleneimine, Sigma, Cat: P3143). After incubation, the cells were collected onto GF/C filter plates with a cell collector (PerkinElmer, model: C961961), washed 4 times with 50 mM Tris-HCl (pH 7.4) wash buffer, and then dried in an oven at 50° C. for 1 h. The bottom of the dried GF/C filter plates were sealed with a membrane, and 50 μL of scintillation solution was added into each well and sealed, and the cells were read by using a Microbeta (PerkinElmer, model: 2450 Microplate Counter). The percentage of activity was calculated using Microsoft Excel software with the formula: % Activity=100×(Sample RawValue−High Control Average)/(Low Control Average-High Control Average), using GraphPad Prism 5 data analysis software. The Dose-response-Stimulation-log [antagonist] vs. response-Variable slope model was selected for fitting analysis to obtain the IC50 value of each tested sample, and the results are shown in Table 1.

sigma-2 receptor [4] = target: T1, sigma-2 receptor; test: Sigma 2 binding assay (3H-DTG radioligand, cell membrane); details: sigma-2R cell membrane, 2 hours at room temperature; for IC50: read-out: Sigma 2 Binding Assay Summary IC50; for Ki: read-out: Sigma 2 Binding Assay Summary Ki
Method: as §1, §2

sigma-1 receptor, sequence (Q99720 whole entry): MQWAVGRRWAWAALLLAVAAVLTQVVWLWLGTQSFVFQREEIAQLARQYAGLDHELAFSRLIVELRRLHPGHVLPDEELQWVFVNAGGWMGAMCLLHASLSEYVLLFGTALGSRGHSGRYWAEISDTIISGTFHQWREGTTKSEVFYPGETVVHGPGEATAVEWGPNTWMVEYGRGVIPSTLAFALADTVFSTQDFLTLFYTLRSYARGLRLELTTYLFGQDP
T1 sequence (Q5BJF2 whole entry, species assumed): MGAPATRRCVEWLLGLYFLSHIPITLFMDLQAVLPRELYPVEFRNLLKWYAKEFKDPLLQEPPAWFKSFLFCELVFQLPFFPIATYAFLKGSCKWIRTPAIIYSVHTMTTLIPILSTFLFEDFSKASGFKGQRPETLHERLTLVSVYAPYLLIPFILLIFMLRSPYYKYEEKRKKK

CC(C)(C)Oc1cc(CCC(C)(C)N2Cc3ccc(S(C)(=O)=O)cc3C2)ccc1O [CT1812]
concentration of cerebrospinal fluid β-amyloid (aβ) [1]: increase | sigma-1 and sigma-2 receptor selectivity (sigma-2 receptor [2]): poor | oral bioavailability [3]: poor

CC(=O)N=S(C)(=O)c1ccc2c(c1)CN(C(C)(C)CCc1ccc(O)c(OC(C)(C)C)c1)C2 (stereo not shown) [Compound 1, N-((2-(4-(3-(tert-butoxy)-4-hydroxyphenyl)-2-methylbutan-2-yl)isoindol-5-yl)(methyl)(oxo)-λ6-thioimido)acetamide]
IC50 (sigma-1 receptor): > 1000 nM | Ki (sigma-1 receptor): > 1000 nM | IC50 (sigma-2 receptor [4]): > 100 nM | Ki (sigma-2 receptor [4]): > 100 nM

CCC(=O)N=S(C)(=O)c1ccc2c(c1)CN(C(C)(C)CCc1ccc(O)c(OC(C)(C)C)c1)C2 (stereo not shown) [Compound 2, N-((2-(4-(3-(tert-butoxy)-4-hydroxyphenyl)-2-methylbutan-2-yl)isoindol-5-yl)(methyl)(oxo)-26-thioimido) propionamide]
IC50 (sigma-1 receptor): > 1000 nM | Ki (sigma-1 receptor): > 1000 nM | IC50 (sigma-2 receptor [4]): > 100 nM | Ki (sigma-2 receptor [4]): > 100 nM

CCCC(=O)N=S(C)(=O)c1ccc2c(c1)CN(C(C)(C)CCc1ccc(O)c(OC(C)(C)C)c1)C2 (stereo not shown) [Compound 3, N-((2-(4-(3-(tert-butoxy)-4-hydroxyphenyl)-2-methylbutan-2-yl)isoindol-5-yl)(methyl)(oxo)-26-thioimido) butanamide]
IC50 (sigma-1 receptor): > 5000 nM | Ki (sigma-1 receptor): > 5000 nM | IC50 (sigma-2 receptor [4]): > 500 nM | Ki (sigma-2 receptor [4]): > 500 nM

CCS(=O)(=NC(C)=O)c1ccc2c(c1)CN(C(C)(C)CCc1ccc(O)c(OC(C)(C)C)c1)C2 (stereo not shown) [Compound 4, N-((2-(4-(3-(tert-butoxy)-4-hydroxyphenyl)-2-methylbutan-2-yl)isoindol-5-yl)(ethyl)(oxo)-26-thioimido)acetamide]
IC50 (sigma-1 receptor): > 1000 nM | Ki (sigma-1 receptor): > 1000 nM | IC50 (sigma-2 receptor [4]): > 100 nM | Ki (sigma-2 receptor [4]): > 100 nM

CCC(=O)N=S(=O)(CC)c1ccc2c(c1)CN(C(C)(C)CCc1ccc(O)c(OC(C)(C)C)c1)C2 (stereo not shown) [Compound 5, N-((2-(4-(3-(tert-butoxy)-4-hydroxyphenyl)-2-methylbutan-2-yl)isoindol-5-yl)(ethyl)(oxo)-16-thioimido) propionamide]
IC50 (sigma-1 receptor): > 1000 nM | Ki (sigma-1 receptor): > 1000 nM | IC50 (sigma-2 receptor [4]): > 100 nM | Ki (sigma-2 receptor [4]): > 100 nM

CCCC(=O)N=S(=O)(CC)c1ccc2c(c1)CN(C(C)(C)CCc1ccc(O)c(OC(C)(C)C)c1)C2 (stereo not shown) [Compound 6, N-((2-(4-(3-(tert-butoxy)-4-hydroxyphenyl)-2-methylbutan-2-yl)isoindol-5-yl)(ethyl)(oxo)-26-thioimido) butyramide]
IC50 (sigma-1 receptor): > 5000 nM | Ki (sigma-1 receptor): > 5000 nM | IC50 (sigma-2 receptor [4]): > 500 nM | Ki (sigma-2 receptor [4]): > 500 nM

CCCS(=O)(=NC(C)=O)c1ccc2c(c1)CN(C(C)(C)CCc1ccc(O)c(OC(C)(C)C)c1)C2 (stereo not shown) [Compound 7, N-((2-(4-(3-(tert-butoxy)-4-hydroxyphenyl)-2-methylbutan-2-yl)isoindol-5-yl)(propyl)(oxo)-26-thioimino)acetamide]
IC50 (sigma-1 receptor): > 5000 nM | Ki (sigma-1 receptor): > 5000 nM | IC50 (sigma-2 receptor [4]): > 500 nM | Ki (sigma-2 receptor [4]): > 500 nM

CCCS(=O)(=NC(=O)CC)c1ccc2c(c1)CN(C(C)(C)CCc1ccc(O)c(OC(C)(C)C)c1)C2 (stereo not shown) [Compound 8, N-((2-(4-(3-(tert-butoxy)-4-hydroxyphenyl)-2-methylbutan-2-yl)isoindol-5-yl)(propyl)(oxo)-26-thioimido) propionamide]
IC50 (sigma-1 receptor): > 5000 nM | Ki (sigma-1 receptor): > 5000 nM | IC50 (sigma-2 receptor [4]): > 500 nM | Ki (sigma-2 receptor [4]): > 500 nM

CCCC(=O)N=S(=O)(CCC)c1ccc2c(c1)CN(C(C)(C)CCc1ccc(O)c(OC(C)(C)C)c1)C2 (stereo not shown) [Compound 9, N-((2-(4-(3-(tert-butoxy)-4-hydroxyphenyl)-2-methylbutan-2-yl)isoindol-5-yl)(propyl)(oxo)-26-thioimido) butanamide]
IC50 (sigma-1 receptor): > 5000 nM | Ki (sigma-1 receptor): > 5000 nM | IC50 (sigma-2 receptor [4]): > 500 nM | Ki (sigma-2 receptor [4]): > 500 nM

CCCCS(=O)(=NC(C)=O)c1ccc2c(c1)CN(C(C)(C)CCc1ccc(O)c(OC(C)(C)C)c1)C2 (stereo not shown) [Compound 10]
IC50 (sigma-1 receptor): > 5000 nM | Ki (sigma-1 receptor): > 5000 nM | IC50 (sigma-2 receptor [4]): > 500 nM | Ki (sigma-2 receptor [4]): > 500 nM

CCCCS(=O)(=NC(=O)CC)c1ccc2c(c1)CN(C(C)(C)CCc1ccc(O)c(OC(C)(C)C)c1)C2 (stereo not shown) [Compound 11, N-((2-(4-(3-(tert-butoxy)-4-hydroxyphenyl)-2-methylbutan-2-yl)isoindol-5-yl)(butyl)(oxo)-26-thioimido) propionamide]
IC50 (sigma-1 receptor): > 5000 nM | Ki (sigma-1 receptor): > 5000 nM | IC50 (sigma-2 receptor [4]): > 500 nM | Ki (sigma-2 receptor [4]): > 500 nM

CCCCS(=O)(=NC(=O)CCC)c1ccc2c(c1)CN(C(C)(C)CCc1ccc(O)c(OC(C)(C)C)c1)C2 (stereo not shown) [Compound 12, N-((2-(4-(3-(tert-butoxy)-4-hydroxyphenyl)-2-methylbutan-2-yl)isoindol-5-yl)(butyl)(oxo)-26-thiimido) butyramide]
IC50 (sigma-1 receptor): > 5000 nM | Ki (sigma-1 receptor): > 5000 nM | IC50 (sigma-2 receptor [4]): > 500 nM | Ki (sigma-2 receptor [4]): > 500 nM

CC(=O)N=S(=O)(CF)c1ccc2c(c1)CN(C(C)(C)CCc1ccc(O)c(OC(C)(C)C)c1)C2 (stereo not shown) [Compound 13, N-((2-(4-(3-(tert-butoxy)-4-hydroxyphenyl)-2-methylbutan-2-yl)isoindol-5-yl)(fluoromethyl)(oxo)-26-thioimido)acetamide]
IC50 (sigma-1 receptor): > 1000 nM | Ki (sigma-1 receptor): > 1000 nM | IC50 (sigma-2 receptor [4]): > 100 nM | Ki (sigma-2 receptor [4]): > 100 nM

CC(=O)N=S(=O)(CCCF)c1ccc2c(c1)CN(C(C)(C)CCc1ccc(O)c(OC(C)(C)C)c1)C2 (stereo not shown) [Compound 14]
IC50 (sigma-1 receptor): > 5000 nM | Ki (sigma-1 receptor): > 5000 nM | IC50 (sigma-2 receptor [4]): > 500 nM | Ki (sigma-2 receptor [4]): > 500 nM

CC(=O)N=S(=O)(CCCCF)c1ccc2c(c1)CN(C(C)(C)CCc1ccc(O)c(OC(C)(C)C)c1)C2 (stereo not shown) [Compound 15, N-((2-(4-(3-(tert-butoxy)-4-hydroxyphenyl)-2-methylbutan-2-yl)isoindol-5-yl)(fluoro-butyl)(oxo)-26-thioimido)acetamide]
IC50 (sigma-1 receptor): > 5000 nM | Ki (sigma-1 receptor): > 5000 nM | IC50 (sigma-2 receptor [4]): > 500 nM | Ki (sigma-2 receptor [4]): > 500 nM

CC(C)(C)Oc1cc(CCC(C)(C)N2Cc3ccc(S(C)(=N)=O)cc3C2)ccc1O (stereo not shown) [Compound 16]
IC50 (sigma-1 receptor): > 100 nM | Ki (sigma-1 receptor): > 100 nM | IC50 (sigma-2 receptor [4]): < 100 nM | Ki (sigma-2 receptor [4]): < 100 nM

CCS(=N)(=O)c1ccc2c(c1)CN(C(C)(C)CCc1ccc(O)c(OC(C)(C)C)c1)C2 (stereo not shown) [Compound 17]
IC50 (sigma-1 receptor): > 100 nM | Ki (sigma-1 receptor): > 100 nM | IC50 (sigma-2 receptor [4]): < 100 nM | Ki (sigma-2 receptor [4]): < 100 nM

CCCS(=N)(=O)c1ccc2c(c1)CN(C(C)(C)CCc1ccc(O)c(OC(C)(C)C)c1)C2 (stereo not shown) [Compound 18]
IC50 (sigma-1 receptor): > 5000 nM | Ki (sigma-1 receptor): > 5000 nM | IC50 (sigma-2 receptor [4]): > 500 nM | Ki (sigma-2 receptor [4]): > 500 nM

CCCCS(=N)(=O)c1ccc2c(c1)CN(C(C)(C)CCc1ccc(O)c(OC(C)(C)C)c1)C2 (stereo not shown) [Compound 19]
IC50 (sigma-1 receptor): > 1000 nM | Ki (sigma-1 receptor): > 1000 nM | IC50 (sigma-2 receptor [4]): > 100 nM | Ki (sigma-2 receptor [4]): > 100 nM

CC(C)(C)Oc1cc(CCC(C)(C)N2Cc3ccc(S(=N)(=O)CF)cc3C2)ccc1O (stereo not shown) [Compound 20]
IC50 (sigma-1 receptor): > 100 nM | Ki (sigma-1 receptor): > 100 nM | IC50 (sigma-2 receptor [4]): < 100 nM | Ki (sigma-2 receptor [4]): < 100 nM

CC(C)(C)Oc1cc(CCC(C)(C)N2Cc3ccc(S(=N)(=O)CCCF)cc3C2)ccc1O (stereo not shown) [Compound 21]
IC50 (sigma-1 receptor): > 5000 nM | Ki (sigma-1 receptor): > 5000 nM | IC50 (sigma-2 receptor [4]): > 500 nM | Ki (sigma-2 receptor [4]): > 500 nM

CC(C)(C)Oc1cc(CCC(C)(C)N2Cc3ccc(S(=N)(=O)CCCCF)cc3C2)ccc1O (stereo not shown) [Compound 22]
IC50 (sigma-1 receptor): > 5000 nM | Ki (sigma-1 receptor): > 5000 nM | IC50 (sigma-2 receptor [4]): > 500 nM | Ki (sigma-2 receptor [4]): > 500 nM
